42 compounds from patent US20240174611A1 (Rappta Therapeutics Oy, priority 2021, published 2024) can be followed below.

Where only a bound is given, the exact number is not on record here.

A word on the GI50: it is the concentration giving 50% growth inhibition.

This assay relates to LNCaP cells. The assay is described as follows: LNCaP cell viability assay (MTS). Conditions: Homo sapiens, LNCaP, 48 h, LNCaP cell line, 48 hours treatment. The assay is classed as cell-based. On the procedure: LNCaP cell line was used for the cell viability assay. LNCaP cells were plated in 96-well plates at a density of 5000 cells per well. After 24 hours of plating, the cells were treated with increasing doses of compound 1-100 ranging from 1 μM to 80 μM. Relative cell numbers were analyzed after 48 hours using 3-(4,5-dimethylthiazol-2-yl)-5-(3-carboxymethoxyphenyl)-2-(4-sulfophenyl)-2H-tetrazolium (MTS) assay (Promega) according to the manufacturer's instructions.
The cell viability data was analyzed with GraphPad Prism software. The values were log transformed and analyzed with non-linear regression (curve-fit) using log(inhibitor) vs. response—variable slope (four parameters) and constraining the bottom to equal zero. Unless otherwise indicated, the GI50 values provided in Table 35 correspond to the LNCaP cell viability assays.
For `CC1CC(NS(=O)(=O)c2ccc(OC(F)(F)F)cc2)CCC1(C)C` (stereo not drawn) [Compound 8, 4-(trifluoromethoxy)-N-(3,4,4-trimethylcyclohexyl)benzene-sulfonamide], the GI50 came out at 73.3 µM.
With `O=S(=O)(NC1CCOc2c(F)ccc(F)c21)c1ccc(OC(F)(F)F)cc1` (stereo not drawn) [Compound 10, N-(5,8-difluorochroman-4-yl)-4-(trifluoromethoxy)benzene-sulfonamide], the GI50 was 67.5 µM.
As for `O=S(=O)(NC1CCc2c(Cl)cc(Cl)cc21)c1ccc(OC(F)(F)F)cc1` (stereo not drawn) [Compound 11, N-(4,6-dichloro-2,3-dihydro-1H-inden-1-yl)-4-(trifluoromethoxy)benzene-sulfonamide], the figure is 44.2 µM; as for `O=S(=O)(NC1CCCc2cc(Cl)ccc21)c1ccc(OC(F)(F)F)cc1` (stereo not drawn) [Compound 12, N-(6-chloro-1,2,3,4-tetrahydronaphthalen-1-yl)-4-(trifluoromethoxy)benzene-sulfonamide], 49 µM.
With `O=S(=O)(NC1CCCCCC1c1ccccc1)c1ccc(OC(F)(F)F)cc1` (stereo not drawn) [Compound 13, N-(2-phenylcycloheptyl)-4-(trifluoromethoxy)benzene-sulfonamide] the figure was 55.6 µM; with `O=S(=O)(NC1(c2cccc(Cl)c2)CCCC1)c1ccc(OC(F)(F)F)cc1` [Compound 14, N-(1-(3-chlorophenyl)cyclopentyl)-4-(trifluoromethoxy)benzene-sulfonamide], 42.8 µM.
In turn, `COc1cccc(C2(NS(=O)(=O)c3ccc(OC(F)(F)F)cc3)CCCC2)c1` [Compound 15] displayed a GI50 of 49.2 µM.
As for `O=C1C(NS(=O)(=O)c2ccc(OC(F)(F)F)cc2)CCCN1Cc1cccc(C(F)(F)F)c1` (stereo not drawn) [Compound 16], the figure is 34.4 µM.
`CCC(C(=O)N1CCC(NS(=O)(=O)c2ccc(OC(F)(F)F)cc2)CC1)c1ccccc1` (stereo not drawn) [Compound 17, N-(1-(2-phenylbutanoyl)piperidin-4-yl)-4-(trifluoromethoxy)benzene-sulfonamide] registered a GI50 of 58 µM.
As for `O=S(=O)(NC1CC2(CCCC2)Oc2ccccc21)c1ccc(OC(F)(F)F)cc1` (stereo not drawn) [Compound 18, N-(spiro[chromane-2,1′-cyclopentan]-4-yl)-4-(trifluoromethoxy)benzene-sulfonamide], the figure is 37.4 µM; as for `COC(=O)C#CC1(NS(=O)(=O)c2ccc(OC(F)(F)F)cc2)CCCC1` [Compound 19], 43 µM; as for `CCOC(=O)C1(NS(=O)(=O)c2ccc(OC(F)(F)F)cc2)CCc2ccccc21` (stereo not drawn) [Compound 20], 60 µM.
`COC(=O)C12CC3(C)CC(C)(CC(NS(=O)(=O)c4ccc(OC(F)(F)F)cc4)(C3)C1)C2` [Compound 21] had a GI50 of 30 µM.
With `O=S(=O)(NC1CCC2CN(Cc3ccccc3)CC21)c1ccc(OC(F)(F)F)cc1` (stereo not drawn) [Compound 22] the figure was 70 µM.
Compound `CC(C)(C)OC(=O)N1CCCC1C1(NS(=O)(=O)c2ccc(OC(F)(F)F)cc2)CC1` (stereo not drawn) [Compound 23] returned a GI50 of 26 µM.
With `O=C1CCC(NS(=O)(=O)c2ccc(OC(F)(F)F)cc2)c2ccc(OC(F)F)cc21` (stereo not drawn) [Compound 25, N-(6-(difluoromethoxy)-4-oxo-1,2,3,4-tetrahydronaphthalen-1-yl)-4-(trifluoromethoxy)benzene-sulfonamide] the figure was 30 µM; with `O=S(=O)(NC1Cc2[nH]ncc2C(C(F)(F)F)C1)c1ccc(OC(F)(F)F)cc1` (stereo not drawn) [Compound 26], 53 µM; with `CC1(C)C[C@H](NS(=O)(=O)c2ccc(OC(F)(F)F)cc2)c2cc(F)ccc2O1` [Compound 27, (S)-N-(6-fluoro-2,2-dimethylchroman-4-yl)-4-(trifluoromethoxy)benzene-sulfonamide], 12 µM.
Compound `CCC1CC1(NS(=O)(=O)c1ccc(OC(F)(F)F)cc1)c1cccc(C)c1` (stereo not drawn) [Compound 28, N-(2-ethyl-1-(m-tolyl)cyclopropyl)-4-(trifluoromethoxy)benzene-sulfonamide] returned a GI50 of 62 µM.
As for `COc1ccc(C2(NS(=O)(=O)c3ccc(OC(F)(F)F)cc3)CCOCC2)cc1F` [Compound 29, N-(4-(3-fluoro-4-methoxyphenyl)tetrahydro-2H-pyran-4-yl)-4-(trifluoromethoxy)benzene-sulfonamide], the figure is 39 µM.
As for `CCOc1cc(CN2CCC(NS(=O)(=O)c3ccc(OC(F)(F)F)cc3)CC2)ccc1O` [Compound 30, N-(1-(3-ethoxy-4-hydroxybenzyl)piperidin-4-yl)-4-(trifluoromethoxy)benzene-sulfonamide], the figure is 30 µM; as for `CC(C)(C)OC(=O)N1CCC(CF)(NS(=O)(=O)c2ccc(OC(F)(F)F)cc2)C1` (stereo not drawn) [Compound 32], 30 µM.
With `Cc1noc(C)c1S(=O)(=O)NCC1(NS(=O)(=O)c2ccc(OC(F)(F)F)cc2)CCCCC1` [Compound 33] the figure was 53 µM; with `O=S(=O)(NC1(c2ccccc2)CCN(Cc2ccccc2)C1)c1ccc(OC(F)(F)F)cc1` (stereo not drawn) [Compound 35, N-(1-benzyl-3-phenylpyrrolidin-3-yl)-4-(trifluoromethoxy)benzene-sulfonamide], 38.7 µM; with `O=S(=O)(NC1(c2ccccc2)CCNC1)c1ccc(OC(F)(F)F)cc1` (stereo not drawn) [Compound 36, N-(3-phenylpyrrolidin-3-yl)-4-(trifluoromethoxy)benzene-sulfonamide], 41.9 µM.
On to `O=S(=O)(NC1(c2ccc(Cl)cc2)CCNC1)c1ccc(OC(F)(F)F)cc1` (stereo not drawn) [Compound 39, N-(3-(4-chlorophenyl)pyrrolidin-3-yl)-4-(trifluoromethoxy)benzene-sulfonamide], for which halving of growth (GI50) required 14 µM.
With `O=C(OCc1ccccc1)N1CCC(NS(=O)(=O)c2ccc(OC(F)(F)F)cc2)(c2ccc(Cl)c(Cl)c2)C1` (stereo not drawn) [Compound 40] the figure was 25.5 µM.
As for `O=S(=O)(NC1(c2ccc(Cl)c(Cl)c2)CCNC1)c1ccc(OC(F)(F)F)cc1` (stereo not drawn) [Compound 41, N-(3-(3,4-dichlorophenyl)pyrrolidin-3-yl)-4-(trifluoromethoxy)benzene-sulfonamide], the figure is 10.4 µM; as for `O=S(=O)(NC1(c2ccc(Cl)cc2)CCNCC1)c1ccc(OC(F)(F)F)cc1` [Compound 45, N-(4-(4-chlorophenyl)piperidin-4-yl)-4-(trifluoromethoxy)benzenesulfonamide], 11 µM; as for `O=S(=O)(NC1(c2ccccc2)CNC1)c1ccc(OC(F)(F)F)cc1` [Compound 46, N-(3-phenylazetidin-3-yl)-4-(trifluoromethoxy)benzenesulfonamide], ≥ 80 µM.
With `O=S(=O)(NC1(c2ccc(Cl)cc2)CNC1)c1ccc(OC(F)(F)F)cc1` [Compound 47, N-(3-(4-chlorophenyl)azetidin-3-yl)-4-(trifluoromethoxy)benzenesulfonamide], the GI50 was determined as 31.8 µM.
With `O=S(=O)(NC1(c2ccc(Cl)c(Cl)c2)CNC1)c1ccc(OC(F)(F)F)cc1` [Compound 48, N-(3-(3,4-dichlorophenyl)azetidin-3-yl)-4-(trifluoromethoxy)benzenesulfonamide] the figure was 18.2 µM; with `O=S(=O)(NC1(c2ccc(Cl)c(Cl)c2)CCNCC1)c1ccc(OC(F)(F)F)cc1` [Compound 49, N-(4-(3,4-dichlorophenyl)piperidin-4-yl)-4-(trifluoromethoxy)benzenesulfonamide], 6.75 µM; with `O=S(=O)(NC1(c2ccccc2)CCNCC1)c1ccc(OC(F)(F)F)cc1` [Compound 50, N-(4-phenylpiperidin-4-yl)-4-(trifluoromethoxy)benzenesulfonamide], 23.3 µM.
As for `O=S(=O)(NC1(c2ccc(Cl)c(F)c2)CCNC1)c1ccc(OC(F)(F)F)cc1` (stereo not drawn) [Compound 52, N-(3-(4-chloro-3-fluorophenyl)pyrrolidin-3-yl)-4-(trifluoromethoxy)benzenesulfonamide], the figure is 23.4 µM.
With `CC(C)(C)OC(=O)N1CCC(NS(=O)(=O)c2ccc(OC(F)(F)F)cc2)(c2ccc(Cl)cc2)CC1` [Compound 53, tert-butyl 4-(4-chlorophenyl)-4-((4-(trifluoromethoxy)phenyl)sulfonamido)piperidine-1-carboxylate] the figure was 16.3 µM.
The compound `O=S(=O)(NC1(c2ccc(Cl)cc2)CCN(Cc2ccccc2)C1)c1ccc(Oc2ccc(C(F)(F)F)cc2)cc1` (stereo not drawn) [Compound 54, N-(1-benzyl-3-(4-chlorophenyl)pyrrolidin-3-yl)-4-(4-(trifluoromethyl)phenoxy)benzenesulfonamide] had a GI50 of 26.8 µM.
Compound `O=S(=O)(NC1(c2ccc(Cl)c(Cl)c2)CCN(Cc2ccccc2)C1)c1ccc(Oc2ccc(C(F)(F)F)cc2)cc1` (stereo not drawn) [Compound 55, N-(1-benzyl-3-(3,4-dichlorophenyl)pyrrolidin-3-yl)-4-(4-(trifluoromethyl)phenoxy)benzenesulfonamide] registered a GI50 of 38 µM.
As for `O=S(=O)(NC1(c2ccc(Cl)c(F)c2)CCNCC1)c1ccc(OC(F)(F)F)cc1` [Compound 56, N-(4-(4-chloro-3-fluorophenyl)piperidin-4-yl)-4-(trifluoromethoxy)benzenesulfonamide], the GI50 came out at 11 µM.
As for `O=S(=O)(NC1(c2ccc(Cl)cc2)CCNC1)c1ccc(Oc2ccc(C(F)(F)F)cc2)cc1` (stereo not drawn) [Compound 57, N-(3-(4-chlorophenyl)pyrrolidin-3-yl)-4-(4-(trifluoromethyl)phenoxy)benzenesulfonamide], the figure is 10.6 µM; as for `O=S(=O)(NC1(c2ccc(Cl)c(F)c2)CNC1)c1ccc(OC(F)(F)F)cc1` [Compound 58, N-(3-(4-chloro-3-fluorophenyl)azetidin-3-yl)-4-(trifluoromethoxy)benzenesulfonamide], 23.2 µM.
As for `O=S(=O)(NC1(c2ccc(F)cc2)CCNCC1)c1ccc(OC(F)(F)F)cc1` [Compound 59, N-(4-(4-fluorophenyl)piperidin-4-yl)-4-(trifluoromethoxy)benzenesulfonamide], the figure is 18.1 µM.
